According to patent EP2292587A1, “PHARMACEUTICAL COMPOSITION FOR INHIBITING THE TRANSCRIPTION FACTOR INDUCIBLE BY HYPOXIA, MODULATORS OF PATHOLOGICAL PROCESSES OF ANGIOGENESIS, ONCOGENESIS, INFLAMMATION, APOPTOSIS, AND CELLULAR THERAPY” (Fundacion De La Comunidad Valenciana Centro De …, priority 2008, dated 2009):

Columns and labels:
[1] = system: PHD3, HIF1α and HIF2α; test: Western blot of HIF target proteins in HeLa9XHRE-LUC cells; format: cell-based; set-up: dose or concentration left out as unconfirmed; conditions: hypoxic conditions, 9 hours
Protocol: The HeLa9XHRE/LUC cells were lysed with a hypotonic buffer (10 mM Tris-HCl, pH 7.5, 1.5 mM MgCl2, I mM KCIO, 2 mM DTT, 1 mM Pefabloc, 2 mM sodium vanadate, 4 µg/ml pepstatin, 4 µg/ml leupeptin, and 4 µg/ml aprotinin), preserved 20 minutes in ice and subsequently centrifuged for 10 minutes at 1,200 rpm, collecting the supernatant and preserving it at -20°C until its use. The quantification of the proteins was performed with colorimetric Coomassie blue method described by Bradford. A commercial system was used following the manufacturer's instructions (PIERCE Chem Co., Rockford III. USA). Bovine serum albumin (A-7906, SIGMA Chem Co., St. Louis MO, USA) was used to generate a standard curve (0-200 µg of protein). Five microliters of each sample were pipetted in a 96-well plate and […] of the Coomassie solution were added and it was maintained in darkness for 5 minutes at room temperature and the absorbance at OD 595 nm was measured in a spectrophotometer. By means of the Graph-Pad statistical program, the standard line was calculated and the values were extrapolated for each of the samples. The final values were expressed as mcg/mcl of protein. The electrophoresis of proteins of the extract was carried out in polyacrylamide gels under denaturing conditions (SDS-PAGE). A commercial mixture of proteins for low molecular mass polypeptides (Amersham) was used as a molecular size standard. […]

[2] = system: HCT116/p53-/- cells; test: cell viability by ATP quantification in colon cancer cells; format: cell-based, human; conditions: 48 hours, 0.5-1000 µM
Protocol: To determine the effects of FM19G11 on human colon cancer cells (HCT116 and HT29), cell viability assays were carried out in HT29, HCT116/p53^+/+ and HCT116/p53^-/- cells by means of quantifying the ATP which associates with metabolically active cells.

Cc1ccc(C(=O)COC(=O)c2cccc(NC(=O)c3ccc([N+](=O)[O-])cc3[N+](=O)[O-])c2)cc1 [FM19G11, 2-oxo-2-(p-tolyl)ethyl 3-((2,4-dinitro)benzamido)benzoate]
expression of HIF 1α and 2α, as well as of PHD3 [1]: decrease | sensitivity (cell viability, ATP) compared to HCT116/p53+/+ or HT29 [2]: less sensitive
